The values that follow come from ChEMBL document CHEMBL4359894, “Novel class of 7-Oxabicyclo[2.2.1]heptene sulfonamides with long alkyl chains displaying improved estrogen receptor α degradation activity” (Eur J Med Chem, 2019).

Where only a bound is given, the exact number is not on record here.

Data set [1] has as its target T1, Estrogen receptor (Homo sapiens) (UniProt P03372).
T1 sequence (whole entry): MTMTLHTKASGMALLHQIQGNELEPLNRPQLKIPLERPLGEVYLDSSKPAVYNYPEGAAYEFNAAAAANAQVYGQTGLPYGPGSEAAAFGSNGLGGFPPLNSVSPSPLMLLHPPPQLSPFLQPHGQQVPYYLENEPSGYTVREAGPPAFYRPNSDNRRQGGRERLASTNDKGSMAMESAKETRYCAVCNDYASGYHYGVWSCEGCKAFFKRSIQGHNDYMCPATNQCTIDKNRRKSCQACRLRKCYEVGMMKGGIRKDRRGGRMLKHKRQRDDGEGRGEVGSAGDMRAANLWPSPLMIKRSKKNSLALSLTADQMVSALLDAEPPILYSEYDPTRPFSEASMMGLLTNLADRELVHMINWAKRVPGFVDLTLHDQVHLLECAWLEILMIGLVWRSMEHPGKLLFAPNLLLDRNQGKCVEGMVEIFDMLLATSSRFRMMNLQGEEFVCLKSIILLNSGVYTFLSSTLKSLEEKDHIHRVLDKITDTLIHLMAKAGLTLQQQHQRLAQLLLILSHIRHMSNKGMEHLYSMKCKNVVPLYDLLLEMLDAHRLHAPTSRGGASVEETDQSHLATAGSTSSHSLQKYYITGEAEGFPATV
In words: Binding affinity to ERalpha (unknown origin) by competitive fluorometric receptor binding assay relative to estradiol.

A short description of data set [2]: Therapeutic index, ratio of IC50 for cytotoxicity against human MCF10A cells to IC50 for antiproliferative activity against human MCF7 cells. In kind it is toxicity, cell-based. As to conditions: read-out: Ratio IC50.
For data set [3], the system named is MCF-10A. Description: Cytotoxicity against human MCF10A cell incubated for 72 hrs by MTT assay. In kind it is cell-based. (Formazan colour is commonly taken as a measure of viable cells.)
Data set [4] concerns MCF7. Description: Antiproliferative activity against human MCF7 cell incubated for 72 hrs by MTT assay. In kind it is functional, cell-based. The settings on record: MCF7, 72 h.
The target of data set [5] is Estrogen receptor beta (Homo sapiens) (UniProt Q92731). Description: Binding affinity to ERbeta (unknown origin) by competitive fluorometric receptor binding assay relative to estradiol.
Estrogen receptor beta (Homo sapiens), sequence (Q92731 whole entry): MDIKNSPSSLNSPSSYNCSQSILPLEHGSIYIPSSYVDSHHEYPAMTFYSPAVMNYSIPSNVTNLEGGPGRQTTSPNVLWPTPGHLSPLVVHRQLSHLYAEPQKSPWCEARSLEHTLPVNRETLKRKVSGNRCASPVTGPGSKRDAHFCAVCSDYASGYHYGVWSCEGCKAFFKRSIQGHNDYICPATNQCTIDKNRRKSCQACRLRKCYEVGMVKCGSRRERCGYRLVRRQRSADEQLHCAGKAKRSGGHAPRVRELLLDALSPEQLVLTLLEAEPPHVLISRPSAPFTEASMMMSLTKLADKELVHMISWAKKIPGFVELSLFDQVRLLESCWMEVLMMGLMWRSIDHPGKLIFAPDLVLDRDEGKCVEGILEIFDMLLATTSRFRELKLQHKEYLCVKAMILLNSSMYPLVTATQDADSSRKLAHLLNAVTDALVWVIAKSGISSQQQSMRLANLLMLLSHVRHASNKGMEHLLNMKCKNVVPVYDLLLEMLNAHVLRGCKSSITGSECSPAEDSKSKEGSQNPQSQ

As usually defined, the IC50 is the concentration that inhibits the measured activity by half. For the molecule `CCCCOc1ccc(C2=C(c3ccc(O)cc3)[C@H]3C[C@H](S(=O)(=O)N(CC(F)(F)F)c4ccc(Cl)cc4)[C@@H]2O3)cc1` (relative stereo), the relative binding affinity (RBA) came out at 4.25 in data set [1] and 0.05 in data set [5]. Moreover, the selectivity ratio in data set [2] was 15.5. For the same molecule, the IC50 in data set [3] was determined as 45.8 µM; in data set [4], 2.95 µM.

Take `CCCCCCCCCCOc1ccc(C2=C(c3ccc(O)cc3)[C@H]3O[C@@H]2C[C@@H]3S(=O)(=O)N(CC(F)(F)F)c2ccc(OC)cc2)cc1` (relative stereo): the values for the relative binding affinity (RBA) in data set [1] and in data set [5] were 1.35 and 0.02, respectively. The selectivity ratio in data set [2] was above 3.9. In addition, the results for the IC50 in data set [3] and in data set [4] were above 100 µM and 25.3 µM, respectively.

Turning to `CCCCCCOc1ccc(C2=C(c3ccc(O)cc3)[C@H]3C[C@H](S(=O)(=O)N(CC)c4ccccc4)[C@@H]2O3)cc1` (relative stereo), the relative binding affinity (RBA) in data set [1] turned out to be 2.99; in data set [5], 0.35. Also, the selectivity ratio in data set [2] is above 28.9. The results for the IC50 in data set [3] and in data set [4] were above 100 µM and 3.45 µM, respectively.

Take `CCCCCCCCOc1ccc(C2=C(c3ccc(O)cc3)[C@H]3C[C@H](S(=O)(=O)N(CC)c4ccccc4)[C@@H]2O3)cc1` (racemic): the relative binding affinity (RBA) in data set [1] was 0.55; in data set [5], 0.02. For the same molecule, the selectivity ratio in data set [2] amounted to 10. Besides, the IC50 in data set [3] is 59.4 µM; in data set [4] it was 5.89 µM.

On to `CCCCCCCCCCOc1ccc(C2=C(c3ccc(O)cc3)[C@H]3C[C@H](S(=O)(=O)N(CC(F)(F)F)c4ccc(Cl)cc4)[C@@H]2O3)cc1` (relative stereo), for which the relative binding affinity (RBA) stood at 0.25 in data set [1] and 0.11 in data set [5]. For the same molecule, the selectivity ratio in data set [2] was above 1.9. In addition, the results for the IC50 in data set [3] and in data set [4] were above 100 µM and 51.2 µM, respectively.

As for `CCCCCCCCCCCCOc1ccc(C2=C(c3ccc(O)cc3)[C@H]3O[C@@H]2C[C@@H]3S(=O)(=O)N(CC(F)(F)F)c2ccc(OC)cc2)cc1` (relative stereo), the relative binding affinity (RBA) in data set [1] is 0.32; in data set [5], 0.01. Further, the selectivity ratio in data set [2] was above 1.1. The IC50 in data set [3] was above 100 µM; in data set [4], 86.7 µM.

In the case of `CCCCCCOc1ccc(C2=C(c3ccc(O)cc3)[C@H]3O[C@@H]2C[C@@H]3S(=O)(=O)N(CC(F)(F)F)c2ccc(Cl)cc2)cc1` (relative stereo), the figures for the relative binding affinity (RBA) in data set [1] and in data set [5] were 3.49 and 0.02, respectively. Besides, the selectivity ratio in data set [2] was 28.7. Also, the IC50 in data set [3] worked out at 39.7 µM; in data set [4], 1.38 µM.

With `CCCCCCCCCCOc1ccc(C2=C(c3ccc(O)cc3)[C@H]3O[C@@H]2C[C@@H]3S(=O)(=O)N(CC(F)(F)F)c2ccc(Cl)cc2)cc1` (relative stereo), the relative binding affinity (RBA) in data set [1] was 0.57; in data set [5], 0.01. In addition, in data set [2], the selectivity ratio was above 4.7. The IC50 is above 100 µM in data set [3] and 21.2 µM in data set [4].

In the case of `CCCCCCCCCCOc1ccc(C2=C(c3ccc(O)cc3)[C@H]3C[C@H](S(=O)(=O)N(CC(F)(F)F)c4ccc(OC)cc4)[C@@H]2O3)cc1` (relative stereo), the relative binding affinity (RBA) in data set [1] stood at 0.85; in data set [5] it was 0.6. In addition, in data set [2], the selectivity ratio is above 3.1. The figures for the IC50 in data set [3] and in data set [4] were above 100 µM and 31.8 µM, respectively.

In the case of `CCCCCCCCCCCCOc1ccc(C2=C(c3ccc(O)cc3)[C@H]3C[C@H](S(=O)(=O)N(CC(F)(F)F)c4ccc(OC)cc4)[C@@H]2O3)cc1` (relative stereo), the relative binding affinity (RBA) turned out to be 0.06 in data set [1] and 0.15 in data set [5]. Moreover, the IC50 in data set [3] and in data set [4] was above 100 µM throughout.
